Reference: ChEMBL document CHEMBL1201862, “PubChem BioAssay data set” (2004)
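Results reflect a 48-hour exposure of cells in 96-well plates to compound at five concentrations. Abbreviation: GI50, concentration required for 50% inhibition of growth.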 Activity calls are given as the source filed them. No stated cut-off is given here; in the data, active = GI50 up to about 1.1 µM and inactive = higher. Bridge positions count the residues as written; N and C are the ends. Peptide text beside a SMILES is read from it. * marks the point of attachment. Cbz = O=C(OCc1ccccc1)*

Experiments:
Experiment in all cases: NCI tumour cell line growth inhibition, 48 h
M14 = system: M14
KM12 = system: KM12
PC-3 = system: PC-3
IGROV-1 = system: IGROV-1
SF-295 = system: SF-295
OVCAR-3 = system: OVCAR-3
Hs-578T = system: Hs-578T
U-251 = system: U-251
CAKI-1 = system: CAKI-1
NCI-H522 = system: NCI-H522
OVCAR-4 = system: OVCAR-4
DU-145 = system: DU-145
SN12C = system: SN12C
MDA-MB-435 = system: MDA-MB-435
ACHN = system: ACHN
MCF7 = system: MCF7
SK-MEL-5 = system: SK-MEL-5
NCI-H460 = system: NCI-H460
BT-549 = system: BT-549

Row | SMILES | GI50 (M14) | GI50 (KM12) | GI50 (PC-3) | GI50 (IGROV-1) | GI50 (SF-295) | GI50 (OVCAR-3) | GI50 (Hs-578T) | GI50 (U-251) | GI50 (CAKI-1) | GI50 (NCI-H522) | GI50 (OVCAR-4) | GI50 (DU-145) | GI50 (SN12C) | GI50 (MDA-MB-435) | GI50 (ACHN) | GI50 (MCF7) | GI50 (SK-MEL-5) | GI50 (NCI-H460) | GI50 (BT-549)
1 | O=C1CC(c2cccc(Br)c2)n2cccc21 (stereo not drawn) | 80.7 µM (inactive) | 46.2 µM (inactive) | 39.5 µM (inactive) | 57.3 µM (inactive) | > 100 µM (inactive) | > 100 µM (inactive) | 28.2 µM (inactive) | > 100 µM (inactive) | 44.6 µM (inactive) | 47.2 µM (inactive) | 88.9 µM (inactive) | > 100 µM (inactive) | > 100 µM (inactive) | > 100 µM (inactive) | 68.5 µM (inactive) | 86.9 µM (inactive) |  |  | 
2 | CCOC(=O)c1c(-c2ccc(O)c(OC)c2)c(C#N)c(=S)n(C2OC(CO)C(O)C(O)C2O)c1-c1ccccc1 (stereo not drawn) | > 100 µM (inactive) | > 100 µM (inactive) | > 100 µM (inactive) | > 100 µM (inactive) | > 100 µM (inactive) | > 100 µM (inactive) | > 100 µM (inactive) | > 100 µM (inactive) | > 100 µM (inactive) |  | > 100 µM (inactive) | > 100 µM (inactive) | > 100 µM (inactive) | > 100 µM (inactive) | > 100 µM (inactive) | > 100 µM (inactive) | > 100 µM (inactive) | > 100 µM (inactive) | 
3 | O=C(O)c1ccccc1/C=C1/Nc2ccccc2C1=O | > 100 µM (inactive) | 37.9 µM (inactive) | > 100 µM (inactive) | 24.2 µM (inactive) | > 100 µM (inactive) | > 100 µM (inactive) | 62.5 µM (inactive) | > 100 µM (inactive) | > 100 µM (inactive) |  | 63.4 µM (inactive) | > 100 µM (inactive) | > 100 µM (inactive) | > 100 µM (inactive) | 57.3 µM (inactive) | 48.8 µM (inactive) |  | 32.9 µM (inactive) | 
4 | CN(C)C(=O)c1nnsc1NN=O | > 100 µM (inactive) | > 100 µM (inactive) | > 100 µM (inactive) | > 100 µM (inactive) | > 100 µM (inactive) | 87.7 µM (inactive) | > 100 µM (inactive) | > 100 µM (inactive) | > 100 µM (inactive) | > 100 µM (inactive) | > 100 µM (inactive) | > 100 µM (inactive) | > 100 µM (inactive) | > 100 µM (inactive) | > 100 µM (inactive) | > 100 µM (inactive) | > 100 µM (inactive) | > 100 µM (inactive) | 
5 | Cc1cccc2c1Oc1cc(Cl)ccc1C2NC(=O)CCN1CCOCC1 (stereo not drawn) | > 100 µM (inactive) | > 100 µM (inactive) | > 100 µM (inactive) | > 100 µM (inactive) | > 100 µM (inactive) | > 100 µM (inactive) |  | > 100 µM (inactive) |  | > 100 µM (inactive) | > 100 µM (inactive) | > 100 µM (inactive) | > 100 µM (inactive) | > 100 µM (inactive) |  | > 100 µM (inactive) | > 100 µM (inactive) | > 100 µM (inactive) | > 100 µM (inactive)
6 | OCCNC1=Nc2ccc(Cl)cc2C(=S)N2CSC[C@@H]12 | > 100 µM (inactive) | > 100 µM (inactive) | > 100 µM (inactive) |  | > 100 µM (inactive) | > 100 µM (inactive) |  | > 100 µM (inactive) | > 100 µM (inactive) | > 100 µM (inactive) | > 100 µM (inactive) | > 100 µM (inactive) | > 100 µM (inactive) | > 100 µM (inactive) | > 100 µM (inactive) | > 100 µM (inactive) | > 100 µM (inactive) | > 100 µM (inactive) | 
7 | COc1cc(N2C(=O)C(=O)C3(CCCCC3)C2=O)cc(OC)c1OC | > 100 µM (inactive) | > 100 µM (inactive) | > 100 µM (inactive) |  | > 100 µM (inactive) | > 100 µM (inactive) |  | > 100 µM (inactive) | > 100 µM (inactive) | > 100 µM (inactive) | > 100 µM (inactive) | > 100 µM (inactive) | > 100 µM (inactive) | > 100 µM (inactive) | > 100 µM (inactive) | > 100 µM (inactive) | > 100 µM (inactive) |  | > 100 µM (inactive)
8 | CC(=O)c1c2c(cc3c1CC1(C3)Cc3cc4c(c(C(C)=O)c3C1)CCCC4)CCCC2 | > 100 µM (inactive) | 28.7 µM (inactive) | 21.4 µM (inactive) | > 100 µM (inactive) | > 100 µM (inactive) | 41.6 µM (inactive) | > 100 µM (inactive) | > 100 µM (inactive) |  | 74.6 µM (inactive) | 53.2 µM (inactive) |  | > 100 µM (inactive) | 57.7 µM (inactive) | 27.9 µM (inactive) | 56.2 µM (inactive) | 17.4 µM (inactive) |  | 
9 | Cc1nc(=O)[nH]c2c1C(=O)N(C(C)C)C(NC(C)C)S2 (stereo not drawn) | > 100 µM (inactive) | > 100 µM (inactive) | 41.2 µM (inactive) | > 100 µM (inactive) | > 100 µM (inactive) | 26.9 µM (inactive) |  | > 100 µM (inactive) | 55.1 µM (inactive) | 47.2 µM (inactive) | 57.9 µM (inactive) | > 100 µM (inactive) | > 100 µM (inactive) | > 100 µM (inactive) | > 100 µM (inactive) | > 100 µM (inactive) | > 100 µM (inactive) |  | 
10 | O=C1CCC2(CC1CC(Sc1ccccc1)Sc1ccccc1)OCCO2 (stereo not drawn) | 43.9 µM (inactive) | 27.4 µM (inactive) | 25.2 µM (inactive) | 74.3 µM (inactive) | 52.6 µM (inactive) | 30.6 µM (inactive) | 23.2 µM (inactive) | 41.9 µM (inactive) | 34.9 µM (inactive) | 23.3 µM (inactive) | 56.1 µM (inactive) | 88.5 µM (inactive) |  | 36.7 µM (inactive) | 38.6 µM (inactive) | 32 µM (inactive) | 17.5 µM (inactive) | 31.8 µM (inactive) | 
11 | CC1(C)N=C(/C(Cl)=[N+](/[O-])C(=O)c2ccc(F)cc2)C(C)(C)N1O | 16.1 µM (inactive) | 26.2 µM (inactive) | 17.5 µM (inactive) | 19.5 µM (inactive) | 31.8 µM (inactive) | 17 µM (inactive) | 26.6 µM (inactive) | > 10 µM (inactive) | 20.2 µM (inactive) |  | 17.9 µM (inactive) | 29.6 µM (inactive) | 15.8 µM (inactive) | 21.4 µM (inactive) | 19.1 µM (inactive) | 19.1 µM (inactive) | 16.4 µM (inactive) | 31.9 µM (inactive) | 
12 | CC(=O)OCC1OC(n2c(C)c(C)c(C)c(C#N)c2=S)C(OC(C)=O)C(OC(C)=O)C1OC(C)=O (stereo not drawn) | 44 µM (inactive) | > 100 µM (inactive) | > 100 µM (inactive) | > 100 µM (inactive) | 14.8 µM (inactive) | > 100 µM (inactive) |  | 27.6 µM (inactive) | > 100 µM (inactive) | 21.8 µM (inactive) | > 100 µM (inactive) | > 100 µM (inactive) | > 100 µM (inactive) | > 100 µM (inactive) | 48.5 µM (inactive) | > 100 µM (inactive) | > 100 µM (inactive) | > 100 µM (inactive) | 
13 | Clc1cccc(-c2sc(-c3ccsc3)cc2Cc2ccsc2)c1 | > 10 µM (inactive) | > 10 µM (inactive) | > 10 µM (inactive) | > 10 µM (inactive) | > 10 µM (inactive) |  |  |  | > 10 µM (inactive) |  | > 10 µM (inactive) | > 10 µM (inactive) | > 10 µM (inactive) | > 10 µM (inactive) |  | > 10 µM (inactive) | > 10 µM (inactive) |  | 
14 | CCCCCCCC(=O)OCC1OC(n2cc(F)c(=O)[nH]c2=O)C(N)C(OC(=O)CCCCCCC)C1O (stereo not drawn) | 17.9 µM (inactive) | 21.2 µM (inactive) |  | 20.3 µM (inactive) | 17.5 µM (inactive) | 20.8 µM (inactive) |  | 19.5 µM (inactive) | 16.8 µM (inactive) | 14.5 µM (inactive) | 15.2 µM (inactive) |  | 17.5 µM (inactive) |  | 20.2 µM (inactive) |  | 10.5 µM (inactive) | 19.4 µM (inactive) | 
15 | O=C(O)c1ccccc1C(=O)Nn1cnnc1 | > 100 µM (inactive) | > 100 µM (inactive) | > 100 µM (inactive) | > 100 µM (inactive) | > 100 µM (inactive) | > 100 µM (inactive) |  | > 100 µM (inactive) |  | > 100 µM (inactive) | > 100 µM (inactive) | > 100 µM (inactive) | > 100 µM (inactive) | > 100 µM (inactive) | > 100 µM (inactive) | > 100 µM (inactive) | > 100 µM (inactive) |  | > 100 µM (inactive)
16 | CNC(=O)C1CCCCNC(=O)CCC(NC(=O)OCc2ccccc2)C(=O)N1 (stereo not drawn) (Cbz-Glu-Lys-NHMe; lactam 1-2; configuration not given here) | > 100 µM (inactive) | > 100 µM (inactive) | > 100 µM (inactive) | > 100 µM (inactive) | > 100 µM (inactive) | > 100 µM (inactive) | > 100 µM (inactive) | > 100 µM (inactive) | > 100 µM (inactive) | > 100 µM (inactive) | > 100 µM (inactive) | > 100 µM (inactive) | > 100 µM (inactive) | > 100 µM (inactive) | > 100 µM (inactive) | > 100 µM (inactive) | > 100 µM (inactive) | > 100 µM (inactive) | 
17 | CC(C)[C@]12O[C@H]1[C@@H]1O[C@]13[C@]1(O[C@H]1C[C@H]1C4=C(CC[C@@]13C)C(=O)OC4)[C@@H]2O [TRIPTOLIDE] | < 0.0136 µM (active) | 0.0274 µM (active) | 0.0181 µM (active) | 0.00713 µM (active) | 0.0279 µM (active) | 0.00586 µM (active) | 0.015 µM (active) | 0.061 µM (active) |  | 0.00881 µM (active) | 0.00792 µM (active) | 0.0244 µM (active) | 0.00861 µM (active) | 0.00693 µM (active) | 0.00679 µM (active) | 0.00427 µM (active) | 0.00697 µM (active) | 0.00527 µM (active) | 
